The subject of one experiment is NDM-1 E. coli XJ141015. Briefly: MIC, broth microdilution. It is filed as cell-based. The conditions noted are these: MHB, 5 × 10^5 CFU/mL, 16 h, 37 °C. An excerpt:
(§1) MIC values were identified through microdilution in sterilized 96-well polypropylene microtiter plates according to the broth microdilution guideline of the Clinical and Laboratory Standards Institute[30]. The test medium was Mueller–Hinton broth (MHB), and the strain concentrations were adjusted to 5 × 10^5 CFU/mL.
On the technique in general: Dilution methods test growth across graded concentrations, often in twofold steps.

The next experiment deals with NDM-1 E. coli XJ141026. Briefly: MIC, broth microdilution. It is filed as cell-based. The conditions noted are these: MHB, 5 × 10^5 CFU/mL, 16 h, 37 °C.
Source text: as §1

In the next experiment the test system is NDM-1 E. coli XJ141047. Briefly: MIC, broth microdilution. It is filed as cell-based. The conditions noted are these: MHB, 5 × 10^5 CFU/mL, 16 h, 37 °C.
Source text: as §1

For experiment [1], the system named is NDM-1 K. pneumoniae XJ155019. The experiment is described as follows: MIC, broth microdilution. The class given is cell-based. The conditions noted are these: MHB, 5 × 10^5 CFU/mL, 16 h, 37 °C.
Source text: as §1

Experiment [2] has as its system NDM-1 K. pneumoniae XJ155020. Briefly: MIC, broth microdilution. It is filed as cell-based. The conditions noted are these: MHB, 5 × 10^5 CFU/mL, 16 h, 37 °C.
Source text: as §1

Experiment [3] concerns NDM-1 in E. coli XJ141026 culture supernatant. Briefly: NDM-1 release to culture supernatant (ELISA). The class given is cell-based. The conditions noted are these: 0.8, 1.6, 3.2 μM; 6 or 12 h. On the procedure:
(§2) NDM-1 level in the filtered supernatant was measured using a specific ELISA kit (Shanghai Enzyme-linked Biotechnology Co., Ltd., China) and western blot analysis. Imipenem hydrolysis in the filtered supernatant at 6 h was monitored using a Biotek powerwave HT microplate spectrophotometer at 30 °C by determining the changes in absorbance at 300 nm, with a final substrate concentration of 100 μM.
In general terms: In an ELISA, binding on a coated surface is turned into a signal by an enzyme label.

Experiment [4] has as its system NDM-1 in E. coli XJ141026. Briefly: NDM-1 levels in supernatants and cell precipitates (western blot). The class given is cell-based. The conditions noted are these: 0.8, 1.6, 3.2 μM; 6 h. On the procedure:
as §2
Soluble total protein concentration was determined and normalized with the Pierce BCA Protein Assay Kit (Thermo Fisher Scientific, Waltham, MA, USA). NDM-1 levels in the cells were measured by SDS-PAGE followed by western blot analysis. The primary antibody against NDM-1 was obtained from Detai Bio-Tech Co., Ltd. by immunizing New Zealand white rabbits with purified NDM-1 protein and further detected by horseradish peroxidase-conjugated anti-rabbit secondary antibody (Santa Cruz Biotechnology Inc., USA). Anti-GroEL antibody (Abcam, ab82592) was used to verify protein loading transferred to the membranes. To clearly normalize the levels of NDM-1, we investigated the two proteins on the same membrane. […] Protein band intensities were quantified from polyvinylidene difluoride membranes with ImageJ software.
For orientation: Immunoblotting shows a protein as a band on a membrane.

Experiment [5] has as its system NDM-1 in E. coli XJ141026 supernatant. Briefly: Imipenem hydrolysis by culture supernatant. The class given is biochemical. On the procedure: as §2
For experiment [6], the system named is NDM-1 in E. coli XJ141026 cell precipitates. Briefly: Imipenem hydrolysis by cell precipitates. The class given is biochemical. The conditions noted are these: 100 μM imipenem (50 μL of 200 μM), 30 °C; treated 6 h.
Procedure: The cell pellet was washed and resuspended in 20 mM Tris-HCl (pH = 7.4) to evaluate imipenem hydrolysis in bacterial cell precipitates. The concentrations were equalized by adjusting the absorbance values to OD600 = 0.3 in the same buffer. After 50 μL of the diluted bacterial cell suspension was transferred to a 96-well plate, 50 μL of 200 μM imipenem was added to measure the hydrolytic activity of NDM-1 and 50 μL of 20 mM Tris-HCl (pH = 7.4) was added as blank. The assays were monitored at 300 nm by using a Biotek powerwave HT microplate spectrophotometer at 30 °C. Data were corrected by subtracting the absorbance values obtained from the blanks.
Another experiment has as its target apo-NDM-1 (Klebsiella pneumoniae, UniProt C7C422). The class given is binding. The conditions noted are these: 50 mM HEPES pH 7.4, 0.05% Tween-20, RED-tris-NTA label, triplicate.
The next experiment addresses NDM-1 (Klebsiella pneumoniae, UniProt C7C422). The conditions noted are these: cited from earlier work. The source says:
NDM-1 inhibitors, which antagonize multiple subtypes of metallo-β-lactamases and protect β-lactam antibiotics from being hydrolyzed, have been widely studied for synergistic application with β-lactam antibiotics to restore their bactericidal effects[15],[25],[26]. The most common mechanism of metallo-β-lactamase inhibitors is metal ion binding.

Usually MIC stands for the least concentration at which growth counts as inhibited. A lower MIC goes with greater potency. As usually defined, the Kd is the constant that tells how readily two partners part at equilibrium. The low end stands for higher affinity, the high end for lower affinity.

Sequence of apo-NDM-1 (C7C422 20-270, looked up, natural form): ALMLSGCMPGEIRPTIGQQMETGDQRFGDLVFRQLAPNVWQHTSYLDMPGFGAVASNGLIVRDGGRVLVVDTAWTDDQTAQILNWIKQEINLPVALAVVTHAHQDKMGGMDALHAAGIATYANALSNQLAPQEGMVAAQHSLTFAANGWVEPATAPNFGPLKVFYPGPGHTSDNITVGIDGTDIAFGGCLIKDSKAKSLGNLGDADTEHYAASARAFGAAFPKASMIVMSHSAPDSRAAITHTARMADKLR
Sequence of NDM-1 (C7C422 20-270, looked up, natural form): as above
Procedure for apo-NDM-1: Briefly, apo-NDM-1 was derived from the purified NDM-1 obtained above by the two rounds of dialysis against 100 volumes of 10 mM HEPES, 200 mM NaCl, and 20 mM EDTA at pH = 7.4 over a 12 h period under stirring. EDTA was removed from the resulting apoenzyme solution by three dialysis steps against 200 volumes of 10 mM HEPES, 1 M NaCl, pH = 7.4, Chelex 100 and finally three dialysis steps against 200 volumes of 50 mM HEPES, 200 mM NaCl, pH = 7.4, and Chelex 100. All buffer solutions used to prepare the apoenzymes were treated by stirring with Chelex 100 (Bio-Rad). Zinc content in the apoprotein samples was checked using ICP-MS, and apo-NDM-1 contains less than 0.2 molar equivalents of zinc ion.
Apo-NDM-1 carrying a polyhistidine-tag (His-tag) was labeled with the RED-tris-NTA second-generation dye for 30 min at room temperature in the dark according to the manufacturer’s instructions (Monolith His-tag Labeling Kit RED-tris-NTA 2nd generation, Nanotemper Technologies GmbH). […] Then, 100 nM labeled NDM-1 protein was added to the serial dilution of the compound in a 1:1 volume ratio. After incubation for 30 min at room temperature, the samples were examined with Monolith NT.115 in Premium Capillaries (MO-K025) at medium MST power and 5% LED/excitation power. Kd values were determined using the Monolith Affinity Analysis Kd fit from triplicate experiments.

For the compound Colistin, the MIC against NDM-1 E. coli XJ141015 is 1.7 µM; in the experiment with NDM-1 E. coli XJ141026, 0.85 µM; against NDM-1 E. coli XJ141047, 1.7 µM; in experiment [1] it was 6.8 µM; in experiment [2] it was 6.8 µM. Moreover, the “NDM-1 release into solution” value in [3] was “causing the release of NDM-1 into the solution in a time- and concentration-dependent manner”. Further, the “NDM-1 level in cell precipitates” value in [4] is “decreased”. Further, the “hydrolysis of imipenem by supernatant” value in experiment [5] (100 μM imipenem, 30 °C, treated 6 h) is listed as “strong hydrolytic activity to imipenem”. For the same compound, in experiment [5] (Discussion), the “effect on NDM-1 activity” value is on record as “almost no effect on NDM-1 activity”. For the same compound, the “hydrolysis rate of precipitates” value in experiment [6] is listed as “consistently decreased with increasing thanatin or colistin concentration”. The compound further registered a Kd at apo-NDM-1 of 61.7 ± 4.92 µM.
Take `N[C@H](CN[C@H](CN[C@@H](CC(=O)O)C(=O)O)C(=O)O)C(=O)O` [aspergillomarasmine A]: the “NDM-1 inhibition in words” value at NDM-1 is recorded as “inhibits the NDM-1 protease activity by chelating zinc ions from the active site”.
